From patent publication US20100311782A1, “SUBSTITUTED PIPERIDINYLPROPANOIC ACID COMPOUNDS AND METHODS OF THEIR USE” (priority 2009, published 2010)

Assays:
[1] = target: T1, cloned human μ opioid receptor (Homo sapiens, UniProt P35372); test: Receptor binding, [3H]diprenorphine displacement, mu opioid receptor; settings: [3H]diprenorphine, cloned human mu opioid receptor; read-out: MOR Ki
T1 construct: expressed in transfected cells

[2] = target: T2, cloned human δ opioid receptor (Homo sapiens, UniProt P41143); test: Receptor binding, [3H]diprenorphine displacement, delta opioid receptor; settings: read-out: DOR Ki
T2 construct: expressed in transfected cells

[3] = target: T3, cloned human κ opioid receptor (Homo sapiens, UniProt P41145); test: Receptor binding, [3H]diprenorphine displacement, kappa opioid receptor; settings: [3H]diprenorphine, cloned human kappa opioid receptor; read-out: KOR Ki
T3 construct: expressed in transfected cells

[4] = target: T1, cloned human μ opioid receptor; test: Inhibition of agonist (loperamide)-stimulated [35S]GTPγS binding; type: biochemical; settings: in vitro studies
Method: The potencies of the antagonists were assessed by their abilities to inhibit agonist-stimulated [^35S]GTPγS binding to membranes containing the cloned human μ, κ, or δ opioid receptors. The agonist used for the μ opioid receptor was loperamide.
To determine the IC50 value, which was the concentration to give half-maximal inhibition of agonist-stimulated [^35S]GTPγS binding, the amount of [^35S]GTPγS bound in the presence of a fixed concentration of agonist and various concentrations of antagonist was measured. The fixed concentration of agonist was the EC80 for the agonist, which was the concentration to give 80% of the relative maximum stimulation of [^35S]GTPγS binding. The IC50 value was determined from a best nonlinear regression fit of the data to the following equation,
where Y is the amount of [^35S]GTPγS bound at each concentration of antagonist, Bottom is the calculated amount of [^35S]GTPγS bound in the presence of an infinite concentration of antagonist, Top is the calculated amount of [^35S]GTPγS bound in the absence of added antagonist, X is the logarithm of the concentration of antagonist, and LogIC50 is the logarithm of the concentration of antagonist where the amount of [^35S]GTPγS bound is halfway between Bottom and Top. The nonlinear regression fit was performed using GraphPad Prism® version 3.00 for Windows (GraphPad Software, San Diego, Calif.).

T1 sequence (P35372 whole entry): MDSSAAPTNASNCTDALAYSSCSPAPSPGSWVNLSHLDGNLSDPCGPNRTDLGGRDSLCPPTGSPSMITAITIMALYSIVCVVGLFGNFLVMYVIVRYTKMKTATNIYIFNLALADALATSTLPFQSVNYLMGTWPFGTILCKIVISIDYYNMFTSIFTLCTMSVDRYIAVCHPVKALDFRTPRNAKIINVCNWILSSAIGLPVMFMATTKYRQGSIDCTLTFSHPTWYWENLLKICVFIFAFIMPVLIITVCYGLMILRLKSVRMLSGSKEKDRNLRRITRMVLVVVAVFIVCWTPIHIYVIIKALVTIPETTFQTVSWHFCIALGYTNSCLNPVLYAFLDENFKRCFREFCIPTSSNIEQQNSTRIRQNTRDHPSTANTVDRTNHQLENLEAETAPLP
T2 sequence (P41143 whole entry): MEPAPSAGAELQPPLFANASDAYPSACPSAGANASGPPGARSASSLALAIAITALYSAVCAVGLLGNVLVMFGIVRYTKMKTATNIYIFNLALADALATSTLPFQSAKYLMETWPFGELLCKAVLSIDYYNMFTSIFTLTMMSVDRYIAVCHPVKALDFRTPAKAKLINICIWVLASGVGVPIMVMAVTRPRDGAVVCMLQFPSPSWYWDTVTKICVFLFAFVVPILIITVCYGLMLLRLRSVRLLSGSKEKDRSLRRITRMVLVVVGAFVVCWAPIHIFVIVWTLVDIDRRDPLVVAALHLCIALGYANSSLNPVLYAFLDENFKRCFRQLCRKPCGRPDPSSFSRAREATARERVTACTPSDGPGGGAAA
T3 sequence (P41145 whole entry): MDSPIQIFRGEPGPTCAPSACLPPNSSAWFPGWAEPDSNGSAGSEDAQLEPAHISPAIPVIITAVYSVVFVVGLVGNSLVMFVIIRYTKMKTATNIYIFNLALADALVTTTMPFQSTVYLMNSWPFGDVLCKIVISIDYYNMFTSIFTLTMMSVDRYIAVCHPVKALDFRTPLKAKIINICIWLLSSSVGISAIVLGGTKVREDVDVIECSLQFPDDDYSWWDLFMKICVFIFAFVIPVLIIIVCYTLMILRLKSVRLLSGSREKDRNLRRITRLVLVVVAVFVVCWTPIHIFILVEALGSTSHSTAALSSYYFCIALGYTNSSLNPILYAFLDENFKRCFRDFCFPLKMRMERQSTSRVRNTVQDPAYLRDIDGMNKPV

C[C@H]1CN(C[C@H](Cc2ccccc2)C(=O)O)CC[C@@]1(C)c1cccc(C(=O)O)c1 [Example C-1, 3-[1-(2S-Carboxy-3-phenyl-propyl)-3R,4R-dimethyl-piperidin-4-yl]-benzoic acid, reference compound]
Ki [1]: 2.29 µM
Ki [2]: > 10 µM
Ki [3]: > 10 µM
inhibition of agonist-stimulated [35S]GTPγS binding relative to the other test compounds [4]: significantly reduced inhibition
